Values quoted from earlier work, collected in EP1935412A2, “Pharmaceutical composition containing 5-chloro-1-[1-[3-(2-oxo-2,3-dihydro-1H-benzimidazol-1-yl)propyl]piperidine-4-yl]-1,3-dihydro-2H-benzimidazol-2-one and method of preparing same” (GALENIX DEVELOPPEMENT, priority 2006, dated 2008).

Details: dans l'eau

Solubility in water: pratiquement insoluble dans l'eau
SMILES: O=c1[nH]c2ccccc2n1CCCN1CCC(n2c(=O)[nH]c3cc(Cl)ccc32)CC1 [dompéridone, 5-chloro-1-[1-[3-(2-oxo-2,3-dihydro-1H-benzimidazol-1-yl)propyl]pipéridin-4-yl]-1,3-dihydro-2H-benzimidazol-2-one]
